Experimental data: paper PMC4756849, “A novel high-throughput activity assay for the Trypanosoma brucei editosome enzyme REL1 and other RNA ligases” (Nucleic Acids Research, 2015)
Where a name gives a salt, the structure may show the parent alone. Read-outs that look alike come from different tables or passages of the source.

Columns and labels:
Trypanosoma brucei REL1 [1] = biological target: T1, Trypanosoma brucei REL1 (Trypanosoma brucei brucei, UniProt P86926); experiment: biochemical; assay type: biochemical
T1 construct: made in house; host or cells: Escherichia coli BL21 (DE3), polycistronic pET-21d construct
Protocol: Substrate RNAs were annealed in the presence of 25 mM KCl, 12.5 mM Tris–HCl pH 8.0, 5 mM Mg(OAc)2 and 0.25 mM DTT at a concentration of 1 μM in 10-ml batches by incubation at 70°C for 10 min, followed by slow cooling to room temperature. Annealed substrate was stored at −80°C. For 2400 assays, 2.4 μl 100 mM ATP were added to 12 ml pre-annealed substrate and 5 μl of the mixture dispensed into each well of a 384-well assay plate (Greiner 788075). A total of 50 nl of LOPAC (Sigma-Aldrich; 2 mM in DMSO) or Maybridge Hitfinder (Thermo Fisher Scientific; 2 mM in DMSO) compounds were added per well using a Biomek FX instrument. Recombinant REL1 was diluted in 10% (v/v) glycerol, 300 mM NaCl, 2 mM DTT and 20 mM Tris–HCl pH 6.0 to a final concentration of 300 ng/μl. One hundred twenty microliter REL1 solution were added to 11.88 ml ligation buffer (5 mM KCl; 12.5 mM Tris–HCl pH 6.0; 1 mM Mg(OAc)2; 0.25 mM DTT, 0.2% (w/v) Triton X-100; 0.003% (w/v) Brij 35) and 5 μl of the REL1/ligation buffer mix were added to each well to start the reaction ([…] REL1 per well). A total of 50 μM NSC-42067 served as positive control for inhibition ([34]). As additional controls, each plate included reactions without inhibitor and reactions without REL1. After 30 min incubation at room temperature the reaction was stopped by adding 12.5 μl STOP solution (9 M urea; 20 mM EDTA). After a minimum incubation period of 15 min plates were read using a ratiometric wavelength read (excitation at 485 nm, detection at 665 and 535 nm). HTS was carried out at The Scripps Research Institute, San Diego, CA, USA.
To validate the suitability of the FRET-based REL1 activity assay for HTS, the assay conditions were adapted to 384-well format to facilitate a pilot screen. An ATP concentration of 10 μM was chosen as a compromise between sensitivity to inhibition and robust S:B ratio.
Figure 5. […] Data were plotted as% inhibition compared to controls without inhibitor and fitted to a sigmoidal curve. […] All experiments were carried out under optimized conditions, and means and standard deviations for three replicates are shown.

Trypanosoma brucei REL1 [2] = biological target: T1, Trypanosoma brucei REL1; experiment: Non-denaturing PAGE of RNA ligation reaction by REL1; assay type: biochemical; details: increasing concentrations of compound, optimized conditions, Figure S4
Protocol: After ligation reaction, 20% (w/v) polyacrylamide gels were used to separate the RNA molecules by non-denaturing PAGE in Tris-borate-EDTA (TBE) buffer. For denaturing PAGE, gels contained 7 M urea. Gels were analyzed using a Typhoon FLA 7000 (GE Healthcare).
Figure S4. Non-denaturing PAGE showing inhibition of RNA ligation reaction by compound NSC42067. Lanes 1, 2 and 3 were loaded with the 16-nt 6-FAM 5’-RNA substrate, the 13-nt Cy5 3’- RNA substrate and a 29-nt dual 6-FAM/Cy5-labelled DNA oligo, respectively. Lane 4 was left empty.
Lanes 5 to 8 show products from standard reaction conditions and controls. Lanes 9 to 11 show the effects of increasing concentrations of NSC42067 in the assay. Ligation reactions were carried out under optimized conditions. The gel analysis confirmed the following:
Lanes 1 - 3: See Supplementary Figure S1.
Lanes 5 to 7: As before (compare Supplementary Figure S1), incubation of 5’- and 3’-RNAs with […]
The intensity of both bands increased with longer incubation time (compare lane 6 = 5 min with lane 7 = 30 min) and was dependent on the presence of REL1 (lane 5).
Figure S5. Structures of the hit compounds selected for validation.
Figure S6. Scatter plot showing the results of the second pilot screen. Compounds of the Maybridge library were incubated at 10 µM concentration in 384-well plates with REL1 (7.8 nM) in the presence […]
Stop buffer was added after 30 min. […]

T. brucei gambiense = test system: T. brucei gambiense; design: method as in PMID 14982785; details: in vitro; cited from earlier work
human hemopoietic cells = details: cited from earlier work
[3] = single-shot HTS, 10 μM final compound concentration, 10 μM ATP, as suggested by HTS
[4] = dose-response curves, HTS/optimized assay conditions, 10 μM ATP, influenced by unknown percentage of active protein
[5] = dose-response curves, HTS/optimized assay conditions, 10 μM ATP, influenced by unknown percentage of active protein, read-out: IC50

T1 sequence (P86926 51-469): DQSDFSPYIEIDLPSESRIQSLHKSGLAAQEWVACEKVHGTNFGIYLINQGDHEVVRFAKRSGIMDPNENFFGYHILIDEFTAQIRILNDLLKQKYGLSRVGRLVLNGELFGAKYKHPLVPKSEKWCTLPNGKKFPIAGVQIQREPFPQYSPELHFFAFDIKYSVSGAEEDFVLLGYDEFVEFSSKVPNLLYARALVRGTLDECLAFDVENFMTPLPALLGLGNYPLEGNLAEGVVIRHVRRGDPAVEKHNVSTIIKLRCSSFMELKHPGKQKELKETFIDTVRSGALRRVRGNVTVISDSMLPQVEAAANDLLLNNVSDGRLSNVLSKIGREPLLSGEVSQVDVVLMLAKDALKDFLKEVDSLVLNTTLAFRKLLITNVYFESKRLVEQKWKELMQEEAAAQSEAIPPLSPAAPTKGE

Structure (SMILES) | Inhibition at 10 μM (Trypanosoma brucei REL1 [1]; read-out: Inhibition at 10 μM) | Inhibition at 10 μM (Trypanosoma brucei REL1 [1]; [3]) | further results
CSc1nc(N)c2ncn([C@@H]3O[C@H](COP(=O)(O)OP(=O)(O)O)[C@@H](O)[C@H]3O)c2n1 [2-(Methylthio)adenosine 5′-diphosphate trisodium salt hydrate] | 22% |  | 
Nc1nc(Cl)nc2c1ncn2[C@@H]1O[C@H](COP(=O)(O)OP(=O)(O)OP(=O)(O)O)[C@@H](O)[C@H]1O [2-Chloroadenosine triphosphate tetrasodium hydrate] | 18% |  | 
Cn1c(=O)c2[nH]c(-c3ccc(S(=O)(=O)O)cc3)nc2n(C)c1=O [8-(p-Sulfophenyl)theophylline hydrate] | 23% |  | 
CC(=O)OC[C@H]1O[C@@H]([S-])[C@H](OC(C)=O)[C@@H](OC(C)=O)[C@@H]1OC(C)=O.CCP(CC)CC.[Au+] [Auranofin] |  | 24% | 
OC[C@H]1O[C@H]([S-])[C@H](O)[C@@H](O)[C@@H]1O.[Au+] [Aurothioglucose hydrate] |  | 93% | IC50 (μM) (Trypanosoma brucei REL1 [1]; [4]): low μM range; IC50 (Trypanosoma brucei REL1 [1]; [5]): 12.1 µM
NC(=O)c1cc[n+](CC2=C(C(=O)[O-])N3C(=O)[C@@H](NC(=O)[C@@H](c4ccccc4)S(=O)(=O)[O-])[C@H]3SC2)cc1.[Na+] [Cefsulodin sodium salt hydrate] |  | 46% | 
CC(=O)OCC1=C(C(=O)[O-])N2C(=O)[C@@H](NC(=O)CCC[C@@H](N)C(=O)[O-])[C@H]2SC1.[Zn+2] [Cephalosporin C zinc salt] |  | 21% | 
CC(C)NC(C)Cc1ccc(I)cc1 (stereo not shown) [Iofetamine hydrochloride] | 70% |  | 
NC(N)=NOCC[C@H](N)C(=O)O [L-Canavanine] | 46% |  | 
O=C(O)/C(=C/c1c(C(=O)O)[nH]c2cc(Cl)cc(Cl)c12)c1ccccc1 [MDL 105,519] |  | 18% | 
O=[N+]([O-])/C=C/c1ccc2c(c1)OCO2 [MNS] |  | 22% | 
CN(N=O)c1ccc(O)c(O)c1 [Methyl-3,4-dephostatin] |  | 97% | IC50 (Trypanosoma brucei REL1 [1]; [5]): > 50 µM; Inhibition in dose-response curve (Trypanosoma brucei REL1 [1]; up to 50 μM concentration): no significant inhibition
O.O=c1c(O)c(-c2ccc(O)cc2O)oc2cc(O)cc(O)c12 [Morin hydrate] |  | 17% | 
O=c1c(O)c(-c2cc(O)c(O)c(O)c2)oc2cc(O)cc(O)c12 [Myricetin] | 100% |  | IC50 (Trypanosoma brucei REL1 [1]): 1.78 µM; IC50 (μM) (Trypanosoma brucei REL1 [1]; [4]): low μM range
O=C(Nc1cccc(C(=O)Nc2ccc(S(=O)(=O)[O-])c3cc(S(=O)(=O)[O-])cc(S(=O)(=O)[O-])c23)c1)Nc1cccc(C(=O)Nc2ccc(S(=O)(=O)[O-])c3cc(S(=O)(=O)[O-])cc(S(=O)(=O)[O-])c23)c1.[Na+].[Na+].[Na+].[Na+].[Na+].[Na+] [NF 023 hydrate] |  | 79% | IC50 (μM) (Trypanosoma brucei REL1 [1]; [4]): low μM range; IC50 (Trypanosoma brucei REL1 [1]; [5]): 1.95 µM
O=C(O)c1cc(O)c(O)c(OC(=O)c2cc(O)c(O)c(O)c2CNc2ccc3cc(S(=O)(=O)O)cc(S(=O)(=O)O)c3c2)c1 [NSC42067] |  |  | IC50 (Trypanosoma brucei REL1 [1]; [5]): 1.4 µM; Effect on formation of the ligation product (gel) (Trypanosoma brucei REL1 [2]): inhibit formation of the ligation product
C#CCN[C@H](C)Cc1ccccc1.Cl [R-(–)-Desmethyldeprenyl hydrochloride] |  | 38% | 
Cc1ccc(C(=O)Nc2ccc(S(=O)(=O)O)c3cc(S(=O)(=O)O)cc(S(=O)(=O)O)c23)cc1NC(=O)c1cccc(NC(=O)Nc2cccc(C(=O)Nc3cc(C(=O)Nc4ccc(S(=O)(=O)O)c5cc(S(=O)(=O)O)cc(S(=O)(=O)O)c45)ccc3C)c2)c1 [Suramin sodium salt] | 66% |  | IC50 (Trypanosoma brucei REL1 [1]): 2.94 µM; IC50 (μM) (Trypanosoma brucei REL1 [1]; [4]): low μM range
N#C/C(=C\c1ccc(O)c(O)c1)C(=O)NCCCNC(=O)/C(C#N)=C/c1ccc(O)c(O)c1 [Tyrphostin AG 537] |  | 93% | IC50 (μM) (Trypanosoma brucei REL1 [1]; [4]): low μM range; IC50 (Trypanosoma brucei REL1 [1]; [5]): 0.25 µM
CC(C)N(CCC(=O)c1ccc2ccccc2c1)Cc1ccccc1.Cl [ZM 39923 hydrochloride] |  | 26% | 
N.N.[Cl][Pt][Cl] [cis-Diammineplatinum(II) dichloride] |  | 14% | 
O=c1c(O)c(-c2ccc(O)c(O)c2)oc2cc(O)cc(O)c12 [quercertin] |  |  | LD50 (T. brucei gambiense): 10 µM; Effect on human hemopoietic cells (human hemopoietic cells): without affecting human hemopoietic cells
CC1(C)CCC2=C(O1)c1ccccc1C(=O)C2=O [β-Lapachone] | 48% |  | 
